Experimental findings from patent publication US5352800A, “Process for the production of a novel endothelin antagonist” (Merck & Co., Inc., priority 1993, dated 1994) are described below.

Each structure is given as a SMILES string.

This data set in a line: Stability of the product during purification (sensitivity to methanol). The note with it: particularly at a pH below 6. In kind it is physicochemical.

For the molecule `CC=C(C)C=C(C)C1C(C)=CC2(C)CC(C)CCC2C1C(=O)C1=CC(O)(Cc2ccccc2)C(=O)N1` (stereo not shown) [Structural Formula I], the “instability of the product / sensitivity to methanol” value is listed as “sensitivity to methanol particularly at a pH below 6”.
